Laboratory results published in US12359230B2, “Microbial oils with high levels of omega-3 fatty acids” (MARA Renewables Corporation, priority 2020, dated 2025).

What was measured:
Format in all cases: cell-based
[1] = tested on: Aurantiochytrium sp. (G3); assay: Cerulenin dose timing: fatty acid profile of Aurantiochytrium sp. (G3)
Protocol: To determine the ideal time for addition of the fatty acid synthase inhibitor cerulenin without excessive harm such as preventing cell growth, experiments were conducted by adding a set amount of cerulenin at various amounts of time after inoculation. In all experiments, the control experiment was performed with the same medium and growth conditions without the addition of FAS inhibitors.

[2] = tested on: Aurantiochytrium sp. (G3); assay: Cerulenin concentration: fatty acid profile of Aurantiochytrium sp. (G3); conditions: 20° C.
Protocol: To determine the optimum concentration of cerulenin to provide the best results, a range of concentrations from 1 μM to 40 μM were tested. For consistency, all cerulenin additions were made at 24 hours after inoculation. […] (G3) in varying concentrations of cerulenin at 20° C.

[3] = tested on: Aurantiochytrium sp. (G3); assay: Cerulenin dosing regimen: fatty acid profile of Aurantiochytrium sp. (G3); conditions: for DHA: DPA / Fatty Acid Content, TFA: 20° C.
Protocol: To investigate the effect of prolonged, repeated exposure to cerulenin, doses were spread equally across 3 or 6 times during the experiment. In each case, the total amount added was equivalent to the corresponding treatments that were added entirely at 24 hours. All additions began at 24 hours after inoculation. In FIGS. 3 and 4, a clear trend of increasing DHA and DPA was visible with both increasing cerulenin concentration and by dosing the cerulenin in multiple equivalent pulses.

[4] = tested on: Aurantiochytrium sp. (G3); assay: Cerulenin effect on product concentration and yield per carbon consumed
Excerpt: To assess the impact of the herein described methods for PUFA enhancement strategy, the yields of product (i.e. TFA, DHA or DPA) relative to the amount of carbon assimilated by the G3 cells was investigated. In FIG. 5, the total amount of product synthesized (categorized as total fatty acids (TFA), saturated fatty acids (SFA) or DHA) is depicted. In the presence of fatty acid synthesis inhibitors, dosed at certain frequency and concentration, both TFA and DHA concentration increased while SFA concentration decreased. For example, under the condition where cerulenin was dosed 1 μM each time for 6 times at 12 hour intervals, TFA and DHA increased by 15% and 71%, respectively, when compared to the results of the control experiment (FIG. 5).

[5] = 25 μM cerulenin added 0 hr after inoculation, 20° C.
[6] = 25 μM cerulenin added 24 hr after inoculation, 20° C.
[7] = 25 μM cerulenin added 48 hr after inoculation, from 25° C. data
[8] = cerulenin added 24 hours after inoculation
[9] = 1 μM cerulenin added at 24 hours after inoculation
[10] = 2 μM cerulenin added at 24 hours after inoculation
[11] = 3 μM cerulenin added at 24 hours after inoculation
[12] = 6 μM cerulenin added at 24 hours after inoculation
[13] = 9 μM cerulenin added at 24 hours after inoculation
[14] = 25 μM cerulenin added at 24 hours after inoculation
[15] = 40 μM cerulenin added at 24 hours after inoculation
[16] = 3 μM cerulenin added entirely at 24 hours
[17] = 6 μM cerulenin added entirely at 24 hours
[18] = 9 μM cerulenin added entirely at 24 hours
[19] = 25 μM cerulenin added entirely at 24 hours
[20] = 3 × 1 μM cerulenin, interval 24 hours, starting at 24 hours after inoculation
[21] = 3 × 2 μM cerulenin, interval 24 hours, starting at 24 hours after inoculation
[22] = 3 × 3 μM cerulenin, interval 24 hours, starting at 24 hours after inoculation
[23] = 3 × 8.3 μM cerulenin, interval 24 hours, starting at 24 hours after inoculation
[24] = 6 × 0.5 μM cerulenin, interval 12 hours, starting at 24 hours after inoculation
[25] = 6 × 1 μM cerulenin, interval 12 hours, starting at 24 hours after inoculation
[26] = 6 × 2 μM cerulenin, interval 12 hours, starting at 24 hours after inoculation
[27] = 6 × 3 μM cerulenin, interval 12 hours, starting at 24 hours after inoculation
[28] = 6 × 4.17 μM cerulenin, interval 12 hours, starting at 24 hours after inoculation
[29] = cerulenin 1 μM each time for 6 times at 12 hour intervals

`C/C=C/C/C=C/CCC(=O)[C@H]1O[C@H]1C(N)=O` [cerulenin] was tested, and the “DHA: DPA” value [1, 5] was 6.13, the “Fatty Acid Content, TFA” value [1, 5] was 579.14 mg/g of dry biomass and the “DHA: DPA” value [1, 6] was 5.14. For the same compound, the “Fatty Acid Content, TFA” value [1, 6] was 560.24 mg/g of dry biomass, the “DHA: DPA” value [1, 7] was 4.58 and the “Fatty Acid Content, TFA” value [1, 7] was 641.86 mg/g of dry biomass. The “C14:0 reduced (% of TFA, vs control)” value [1, 8] was 21.1%, the “C16:0 reduced (% of TFA, vs control)” value [1, 8] was 27.9% and the cell growth ([1]; cerulenin added at any addition time after inoculation) was “not inhibited”. For the same compound, the “DHA: DPA” value [2, 9] was 8.73, the “Fatty Acid Content, TFA” value [2, 9] was 580.28 mg/g of dry biomass and the “DHA: DPA” value [2, 10] was 8.50. For the same compound, the “Fatty Acid Content, TFA” value [2, 10] was 580.90 mg/g of dry biomass, the “DHA: DPA” value [2, 11] was 6.77 and the “Fatty Acid Content, TFA” value [2, 11] was 658.72 mg/g of dry biomass. The “DHA: DPA” value [2, 12] was 6.87, the “Fatty Acid Content, TFA” value [2, 12] was 619.88 mg/g of dry biomass and the “DHA: DPA” value [2, 13] was 6.26. For the same compound, the “Fatty Acid Content, TFA” value [2, 13] was 603.79 mg/g of dry biomass, the “DHA: DPA” value [2, 14] was 5.27 and the “Fatty Acid Content, TFA” value [2, 14] was 578.10 mg/g of dry biomass. For the same compound, the “DHA: DPA” value [2, 15] was 4.54, the “Fatty Acid Content, TFA” value [2, 15] was 540.11 mg/g of dry biomass and the “DHA: DPA” value [3, 16] was 6.77. For the same compound, the “Fatty Acid Content, TFA” value [3, 16] was 658.72 mg/g of dry biomass, the “DHA: DPA” value [3, 17] was 6.87 and the “Fatty Acid Content, TFA” value [3, 17] was 619.88 mg/g of dry biomass. For the same compound, the “DHA: DPA” value [3, 18] was 6.26, the “Fatty Acid Content, TFA” value [3, 18] was 603.79 mg/g of dry biomass and the “DHA: DPA” value [3, 19] was 5.40. The “Fatty Acid Content, TFA” value [3, 19] was 595.96 mg/g of dry biomass, the “DHA: DPA” value [3, 20] was 6.67 and the “Fatty Acid Content, TFA” value [3, 20] was 636.22 mg/g of dry biomass. For the same compound, the “DHA: DPA” value [3, 21] was 6.10, the “Fatty Acid Content, TFA” value [3, 21] was 614.40 mg/g of dry biomass and the “DHA: DPA” value [3, 22] was 6.28. The “Fatty Acid Content, TFA” value [3, 22] was 597.67 mg/g of dry biomass, the “DHA: DPA” value [3, 23] was 4.75 and the “Fatty Acid Content, TFA” value [3, 23] was 617.52 mg/g of dry biomass. For the same compound, the DHA increase ([3]; 6 equivalent doses of cerulenin, 12 μM in total) was 51.6%, the “DHA: DPA” value [3, 24] was 5.66 and the “Fatty Acid Content, TFA” value [3, 24] was 616.79 mg/g of dry biomass. The “DHA: DPA” value [3, 25] was 5.12, the “Fatty Acid Content, TFA” value [3, 25] was 620.75 mg/g of dry biomass and the “DHA: DPA” value [3, 26] was 4.69. For the same compound, the “Fatty Acid Content, TFA” value [3, 26] was 585.23 mg/g of dry biomass, the “DHA: DPA” value [3, 27] was 4.19 and the “Fatty Acid Content, TFA” value [3, 27] was 540.81 mg/g of dry biomass. The “DHA: DPA” value [3, 28] was 3.91, the “Fatty Acid Content, TFA” value [3, 28] was 538.56 mg/g of dry biomass and the DHA % ([3]; flask experiment, multiple and intermittent dosing of cerulenin (12 μM total, 20° C., FIG. 7)) was 68.7%. For the same compound, the “maximal decrease in C14:0” value ([3]; repeated cerulenin dosing) was 85.1%, the “maximal decrease in C16:0” value ([3]; repeated cerulenin dosing) was 83.9% and the “impact on total fatty acids” value ([3]; repeated dose addition of cerulenin) was “no negative impact”. The “increase in DHA yield (gram product/gram carbon consumed) vs control” value ([4]; 6×1 μM cerulenin) was 53%, the “reduction in SFA yield (gram product/gram carbon consumed) vs control” value ([4]; 6×1 μM cerulenin) was 64% and the “DHA concentration increased vs control” value [4, 29] was 71%. For the same compound, the “TFA concentration increased vs control” value [4, 29] was 15%.
